Patent publication US10962541B2 (priority 2014, dated 2021)

Columns and labels:
RhoA [1] = type: cell-based
Rap1 = type: cell-based, monkey
RhoA [2] = type: cell-based, monkey
[3] = test system: polarized endothelial cells; experiment: Cell barrier function and viral infection in polarized endothelial cells; type: cell-based; conditions: unpublished results
Rac1 = molecular target: T1, Rac1 (Homo sapiens, UniProt P63000); experiment: G-trap assay validation, active Rac1 in HeLa cells; type: cell-based; conditions: calpeptin-mediated activation of RhoA
T1 construct: endogenous in cells; host or cells: HeLa (ATCC)

## COc1ccc(C2CC(c3ccccc3)=NN2c2ccc(S(N)(=O)=O)cc2)cc1 (stereo not shown) [CID2950007]
RhoA [1]
  RhoA activity: no effect on RhoA activity

## COC(=O)[C@H](CCSC)NC(=O)c1ccc(NC[C@@H](N)CS)cc1-c1ccccc1 [FTI277]
Rap1
  increase in active Rap1: ~2 fold

## CCN(CC)CCCC(C)Nc1nc(C)cc(Nc2ccc3nc(C)cc(N)c3c2)n1 (stereo not shown) [NSC23766]
RhoA [2]
  RhoA-GTP above EGF stimulation alone: 1.3 fold
  RhoA-GTP increase above basal levels: 2 fold
RhoA [1]
  RhoA activity: elevated relative to resting cells
  activation of RhoA relative to resting cells: > 5 fold

## C[C@@H](N)[C@H]1CC[C@H](C(=O)Nc2ccncc2)CC1 [Y27632]
[3]
  loss of cell barrier function: blocks the loss of cell barrier function
  viral infection: limits viral infection

## CCCC[C@@H](C=O)NC(=O)[C@H](CC(C)C)NC(=O)OCc1ccccc1 [calpeptin]
RhoA [2]
  increase in active RhoA: > 2 fold
Rac1
  Rac1 activity: concomitant decrease in Rac1 activity
